Results published in patent publication US20170280720A1, “ARGININE […] INHIBITORS AND USES THEREOF” (EPIZYME, INC., priority 2014, published 2017).

Legend:
Human CARM1 (PRMT4) = biological target: T1, Human CARM1 (PRMT4) (Homo sapiens, UniProt Q86X55); assay: CARM1 biochemical assay (3H-SAM Flashplate, peptide substrate); details: read-out: CARM1_ IC50
T1 construct: Flag-CARM1-His; made in house; host or cells: HEK 293F cells (BacMam baculovirus, pFastBacMam)
T1 sequence (Q86X55 2-585 isoform Q86X55-1): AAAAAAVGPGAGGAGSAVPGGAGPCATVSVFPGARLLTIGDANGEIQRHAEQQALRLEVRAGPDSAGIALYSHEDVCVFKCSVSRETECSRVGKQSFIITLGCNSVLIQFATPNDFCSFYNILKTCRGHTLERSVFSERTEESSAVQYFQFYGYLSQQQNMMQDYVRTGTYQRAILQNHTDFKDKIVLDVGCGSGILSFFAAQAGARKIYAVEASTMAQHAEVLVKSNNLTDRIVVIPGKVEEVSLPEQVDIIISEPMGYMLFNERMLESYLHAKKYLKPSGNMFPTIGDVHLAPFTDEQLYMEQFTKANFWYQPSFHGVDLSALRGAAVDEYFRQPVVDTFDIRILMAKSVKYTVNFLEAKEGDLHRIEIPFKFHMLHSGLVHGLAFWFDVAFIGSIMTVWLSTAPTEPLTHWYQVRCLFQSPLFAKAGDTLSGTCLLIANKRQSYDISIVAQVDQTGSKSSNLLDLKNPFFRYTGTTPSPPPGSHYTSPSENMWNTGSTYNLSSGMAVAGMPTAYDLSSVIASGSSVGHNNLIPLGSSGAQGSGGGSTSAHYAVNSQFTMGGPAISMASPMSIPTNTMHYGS
Method in brief: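 FLAG/His-tagged human CARM1 (isoform 1, Δ539-561, baculovirus-expressed), 0.25 nM, preincubated 30 min at room temperature with compound (2% DMSO) in 20 mM Bicine pH 7.6, then reacted with 30 nM 3H-SAM and 250 nM biotinylated H3 16-30 peptide (R26 monomethyl). Stopped with 300 uM cold SAM; labelled peptide captured on streptavidin Flashplate; % inhibition versus DMSO and 1 mM SAH controls fitted to a 4- or 3-parameter curve.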

PRMT5 = PRMT5 (Homo sapiens, UniProt O14744); assay: PRMT5 IC50 (Table 2; no method described); type: biochemical; details: read-out: PRMT5_ IC50
PRMT5, sequence (O14744 whole entry, species assumed): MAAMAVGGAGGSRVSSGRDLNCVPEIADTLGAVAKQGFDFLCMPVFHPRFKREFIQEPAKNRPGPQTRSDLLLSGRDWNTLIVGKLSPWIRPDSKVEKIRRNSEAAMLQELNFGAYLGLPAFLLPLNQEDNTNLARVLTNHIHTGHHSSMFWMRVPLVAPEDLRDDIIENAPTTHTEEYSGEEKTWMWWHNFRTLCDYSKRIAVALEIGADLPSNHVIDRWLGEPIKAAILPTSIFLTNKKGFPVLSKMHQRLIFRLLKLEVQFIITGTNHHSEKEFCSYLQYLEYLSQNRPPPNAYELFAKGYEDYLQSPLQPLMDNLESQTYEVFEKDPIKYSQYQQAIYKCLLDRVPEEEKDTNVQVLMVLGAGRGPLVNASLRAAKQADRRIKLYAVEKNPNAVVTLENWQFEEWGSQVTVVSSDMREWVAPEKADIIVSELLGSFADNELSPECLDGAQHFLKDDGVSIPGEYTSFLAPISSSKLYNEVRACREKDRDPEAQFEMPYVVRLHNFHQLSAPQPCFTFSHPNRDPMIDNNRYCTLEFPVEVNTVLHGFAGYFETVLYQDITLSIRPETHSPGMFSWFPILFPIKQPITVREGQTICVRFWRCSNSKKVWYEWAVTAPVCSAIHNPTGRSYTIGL
PRMT5, sequence (Q9BQA1 whole entry partner, species assumed): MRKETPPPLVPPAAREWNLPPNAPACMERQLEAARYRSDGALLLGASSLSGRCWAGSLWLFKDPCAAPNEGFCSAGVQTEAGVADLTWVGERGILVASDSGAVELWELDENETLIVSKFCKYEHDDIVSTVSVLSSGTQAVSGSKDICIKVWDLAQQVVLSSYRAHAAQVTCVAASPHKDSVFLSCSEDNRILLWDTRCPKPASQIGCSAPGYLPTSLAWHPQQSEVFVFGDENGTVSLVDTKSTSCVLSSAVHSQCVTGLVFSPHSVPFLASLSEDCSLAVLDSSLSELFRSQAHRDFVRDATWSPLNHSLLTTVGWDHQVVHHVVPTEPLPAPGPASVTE

[1] = tested on: asymmetric di-methyl PABP1 in RKO cells; assay: In Cell Western (ICW) for asymmetric di-methyl PABP1 and DNA content in RKO cells; type: cell-based; details: Homo sapiens, RKO
Method in brief: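 RKO cells treated with compound for 48 h at 37 °C, then fixed, methanol-permeabilized and stained for asymmetric di-methyl PABP1 (800 nm) with DRAQ5 DNA stain (700 nm). Signal ratio normalized to DMSO and 20 μM reference-compound controls. IC50 from nine 3-fold dilutions in triplicate.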

SMILES	IC50 (Human CARM1 (PRMT4)) [nM]	IC50 (PRMT5) [nM]	IC50 ([1]; In Cell Western) [nM]	IC50 ([1]; 48 h) [nM]
CC(C)n1ncc2c(C(=O)N(C)[C@@H](C)c3ccccc3)cc(-c3cccc(CN(C)CCN)c3)nc21 [Compound 193]	13.5	790		
CNCCN(C)Cc1cccc(-c2cc(C(=O)N(C)Cc3cccc(Cl)c3)c3cnn(C(C)C)c3n2)c1 [Compound 237]	48.1	1480		
CC(C)n1ncc2c(C(=O)N(C)Cc3ccc(F)cc3)cc(-c3cccc(CN(C)CCN)c3)nc21 [Compound 240]	49.7	7420		
CC(C)n1ncc2c(C(=O)N(C)Cc3ccccc3Cl)cc(-c3cccc(CN(C)CCN)c3)nc21 [Compound 242]	51.9	235		
CNCCN(C)Cc1cccc(-c2cc(C(=O)N(C)Cc3cccc(F)c3)c3cnn(C(C)C)c3n2)c1 [Compound 244]	53.1	2830		
CNCCN(C)Cc1cccc(-c2cc(C(=O)N(C)C(C)c3ccccc3)c3cnn(C(C)C)c3n2)c1 (stereo not shown) [Compound 246]	54.3	577		
CC(C)n1ncc2c(C(=O)N(C)Cc3ccccc3F)cc(-c3cccc(CN(C)CCN)c3)nc21 [Compound 250]	58.3	816		
CC(C)n1ncc2c(C(=O)NCc3cccc(F)c3)cc(-c3cccc(CN(C)CCN)c3)nc21 [Compound 251]	59.1	47300		
CC(C)n1ncc2c(C(=O)N3CCC(F)C3)cc(-c3cccc(CN(C)CCN)c3)nc21 (stereo not shown) [Compound 257]	63.5		10300	
CC(C)n1ncc2c(C(=O)N3CCSCC3)cc(-c3cccc(CN(C)CCN)c3)nc21 [Compound 258]	64.2		18500	
CNCCN(C)Cc1cccc(-c2cc(C(=O)NCc3cccc(F)c3)c3cnn(C(C)C)c3n2)c1 [Compound 259]	67		20000	
CNCCN(C)Cc1cccc(-c2cc(C(=O)N[C@@H](C)c3ccccc3)c3cnn(Cc4ccncc4)c3n2)c1 [Compound 260]	68.2		20000	
CC(C)n1ncc2c(C(=O)N3CCC(F)(F)C3)cc(-c3cccc(CN(C)CCN)c3)nc21 [Compound 261]	69.4		20000	
CC(C)n1ncc2c(C(=O)NCc3cn(C)cn3)cc(-c3cccc(CN(C)CCN)c3)nc21 [Compound 262]	70.2		10200	
CC(C)n1ncc2c(C(=O)N(C)C3CCOCC3)cc(-c3cccc(CN(C)CCN)c3)nc21 [Compound 265]	74.4		10300	
CC(C)n1ncc2c(C(=O)N(C)Cc3cccc(Cl)c3)cc(-c3cccc(CN(C)CCN)c3)nc21 [Compound 266]	74.9	1790		
CC(C)n1ncc2c(C(=O)N3CCc4ccccc4C3)cc(-c3cccc(CNCCN)c3)nc21 [Compound 269]	79.9	13100		
CNCCN(C)Cc1cccc(-c2cc(C(=O)NC3CCOCC3)c3cnn(CC(F)(F)F)c3n2)c1 [Compound 270]	81		5140	
CCNCCN(C)Cc1cccc(-c2cc(C(=O)NCC3CCOCC3)c3cnn(C(C)C)c3n2)c1 [Compound 271]	81.4		20000	
CC(C)n1ncc2c(C(=O)N3CCN(C)C(=O)C3)cc(-c3cccc(CN(C)CCN)c3)nc21 [Compound 272]	84.8		20000	
CC(C)n1ncc2c(C(=O)NCC3CCOCC3)cc(-c3cccc(CN(C)CCNC4CCC4)c3)nc21 [Compound 273]	87.7		14500	
COC1CCN(C(=O)c2cc(-c3cccc(CN(C)CCN)c3)nc3c2cnn3C(C)C)C1 (stereo not shown) [Compound 274]	89.3		20000	
CNCCN(C)Cc1cccc(-c2cc(-c3ccc(F)cc3)c3cnn(C(C)C)c3n2)c1 [Compound 275]	92.8		20000	
CNCCN(C)Cc1cccc(-c2cc(C(=O)NCc3ccc(F)cc3)c3cnn(C(C)C)c3n2)c1 [Compound 276]	94.1		20000	
CNCCN(C)Cc1cccc(-c2cc(C(=O)NCC3CCOCC3)c3cnn(CC(F)(F)F)c3n2)c1 [Compound 277]	105		7200	
CNCCN(C)Cc1cccc(-c2cc(C(=O)N(C)Cc3ccc(F)cc3)c3cnn(C(C)C)c3n2)c1 [Compound 278]	110	8730		
CC(C)n1ncc2c(C(=O)N3CCOCC3)cc(-c3cccc(CN(C)CCN)c3)nc21 [Compound 279]	113		18700	
CNCCN(C)Cc1cccc(-c2cc(C(=O)NCc3cncn3C)c3cnn(C(C)C)c3n2)c1 [Compound 280]	113		9490	

SMILES	IC50 (Human CARM1 (PRMT4)) [nM]	IC50 (PRMT5) [nM]	IC50 ([1]; In Cell Western) [nM]	IC50 ([1]; 48 h) [nM]
CNCCN(C)Cc1cccc(-c2cc(C(=O)N[C@@H](C)c3ccccc3)c3cnn(Cc4ccccc4)c3n2)c1 [Compound 281]	128	17400		
CC(C)n1ncc2c(C(=O)N(C)Cc3ccccn3)cc(-c3cccc(CN(C)CCN)c3)nc21 [Compound 282]	130		8200	
CNCCN(C)Cc1cccc(-c2cc(C(=O)NC3CCOCC3)c3cnn(C)c3n2)c1 [Compound 284]	137		20000	
C=CCn1ncc2c(C(=O)NCC3CCOCC3)cc(-c3cccc(CN(C)CCNC)c3)nc21 [Compound 286]	148		7150	
CNCCN(C)Cc1cccc(-c2cc(C(=O)NCC(F)(F)F)c3cnn(C(C)C)c3n2)c1 [Compound 288]	159		3440	
CNCCN(C)Cc1cccc(-c2cc(C(=O)NCC3CCOCC3)c3cnn(C)c3n2)c1 [Compound 289]	163		16900	
CNCCN(C)Cc1cccc(-c2cc(CO)c3cnn(C(C)C)c3n2)c1 [Compound 290]	167		20000	
CNCCN(C)Cc1cccc(-c2cc(C(=O)N(C)C3CC3)c3cnn(C(C)C)c3n2)c1 [Compound 292]	171		14000	
CNCCN(C)Cc1cccc(-c2cc(C(F)(F)F)c3cnn(C(C)C)c3n2)c1 [Compound 293]	173		17600	
CNCCN(C)Cc1cccc(-c2cc(C(=O)N(C)Cc3cccnc3)c3cnn(C(C)C)c3n2)c1 [Compound 294]	177		4020	
CC(C)n1ncc2c(C(=O)NC3CCOCC3)cc(-c3cccc(CN(C)CCNC4CC4)c3)nc21 [Compound 295]	181		12400	
CNCCN(C)Cc1cccc(-c2cc(C(=O)N3CCN(C)C(=O)C3)c3cnn(C(C)C)c3n2)c1 [Compound 296]	183		15700	
CC(C)n1cc2c(C(=O)NCC3CCOCC3)cc(-c3cccc(CN(C)CCN)c3)nc2n1 [Compound 297]	189		20000	
CNCCN(C)Cc1cccc(-c2cc(C(=O)N(C)CC3CCOCC3)c3cnn(C(C)C)c3n2)c1 [Compound 298]	200		9620	
CNCCN(C)Cc1cccc(-c2cc(C(=O)N3Cc4cccnc4C3)c3cnn(C(C)C)c3n2)c1 [Compound 301]	209		15500	
CNCCN(C)Cc1cccc(-c2cc(C(O)c3ccncc3)c3cnn(C(C)C)c3n2)c1 (stereo not shown) [Compound 307]	250		20000	
CNC(=O)c1cc(-c2cccc(CNCCN)c2)nc2c1cnn2C(C)C [Compound 311]	293		14200	
CC(C)n1ncc2c(NCC(=O)O)cc(-c3cccc(CN(C)CCN)c3)nc21 [Compound 319]	401		20000	
NCCNCc1ccc(-c2ccc3cnn(Cc4cccc(C(=O)N5CCOCC5)c4)c3c2)cc1 [Compound 349]		117		
NCCNCc1ccc(-c2ccc3cnn(Cc4ccncc4)c3c2)cc1 [Compound 350]		172		
NCCNCc1ccc(-c2ccc3cnn(C4CCNCC4)c3c2)cc1 [Compound 351]		235		
CC(=O)N1CCC(Cn2cnc3ccc(-c4ccc(CNCCN)cc4)cc32)CC1 [Compound 352]		325		
CC(=O)N1CCC(Cn2ncc3ccc(-c4ccc(CNCCN)cc4)cc32)CC1 [Compound 353]		351		
CC(C)(C)C(=O)Cn1cnc2cc(-c3ccc(CNCCN)cc3)ccc21 [Compound 354]		452		
CN(CCc1ccccn1)C(=O)c1cncc(-c2ccc(CNCCN)cc2)c1 [Compound 357]		393		
CCN(c1cc(-c2cccc(CN(C)CCNC)c2)cc(C(=O)NCc2c(C)cc(C)[nH]c2=O)c1C)C1CCOCC1 [Compound 387]	97.2			10900
Cc1cc(C)c(CNC(=O)c2cc(-c3cc(CNCCN)ccc3C)cc3c2cnn3C(C)C)c(=O)[nH]1 [Compound 388]	149			≥ 20000
